Results on 17 compounds are retold here after paper PMC3830801, “Synthesis and Biological Evaluation of 2-Hydroxy-3-[(2-aryloxyethyl)amino]propyl 4-[(Alkoxycarbonyl)amino]benzoates” (The Scientific World Journal, 2013).

One may read the pKa as the negative logarithm of the acid dissociation constant. The term MIC denotes the smallest concentration in the dilution series that meets the test's criterion for growth inhibition. Read a low MIC as greater potency.

The nature of data set [1]: Lipophilicity determination by HPLC (capacity factor k / log k). The format is physicochemical. Conditions: RP-HPLC, C18, MeOH 55%/H2O 45%. From the text:
A Waters Alliance 2695 XE HPLC separation module and a Waters Photodiode Array Detector 2996 (Waters Corp., Milford, MA, USA) were used. A Symmetry C18 5 μm, 4.6 × 250 mm, part number WAT054275 (Waters Corp., Milford, MA, USA) chromatographic column was used. The HPLC separation process was monitored by Empower 2 Chromatography Data Software, Waters 2009 (Waters Corp., Milford, MA, USA). A mixture of MeOH p.a. (55%) and H2O-HPLC–Milli-Q Grade (45%) was used as a mobile phase. The total flow of the column was 1.0 mL/min, injection volume 30 μL, column temperature 45°C, and sample temperature 10°C. The detection wavelength of 210 nm was chosen. The KI methanolic solution was used for the dead time (t D) determination. Retention times (t R) were measured in minutes. The capacity factors k were calculated using the Empower 2 Chromatography Data Software according to formula k = (t R − t D)/t D, where t R is the retention time of the solute, whereas t D denotes the dead time obtained using an unretained analyte. logk, calculated from the capacity factor k, is used as the lipophilicity index converted to logP scale.

The nature of data set [2]: pKa determination by RP-HPLC. Type of data set: physicochemical. The note with it: from retention factor vs pH of mobile phase, recalculated for water medium.
Data set [3] deals with Mycobacterium avium subsp. paratuberculosis CIT03. As to the kind of experiment: In vitro antimycobacterial evaluation (alamarBlue, MIC). Type of data set: cell-based. The note with it: for MIC: Mycobacterium avium, 264 h, MIC/IC90, 11 days incubation, 37°C. As for the experimental part: (§1) Clinical isolates of Mycobacterium avium subsp. paratuberculosis CIT03 and M. intracellulare were grown in Middlebrook broth (MB), supplemented with oleic-albumin-dextrose-catalase supplement (OADC, Becton Dickinson, UK) and mycobactin J (2 μg/mL). Identification of these isolates was performed using biochemical and molecular protocols. At log phase growth, the culture (10 mL) was centrifuged at 15,000 rpm/20 min using a bench top centrifuge (Model CR 4–12, Jouan Inc., UK). Following the removal of the supernatant, the pellet was washed in fresh Middlebrook 7H9GC broth and resuspended in fresh supplemented MB (10 mL). The turbidity was adjusted to match McFarland standard no. 1 (3 × 10^8 cfu) with MB broth. A further 1 : 20 dilution of the culture was then performed in MB broth. The antimicrobial susceptibility of all four mycobacterial species was investigated in a 96-well plate format. In these experiments, sterile deionised water (300 μL) was added to all outer-perimeter wells of the plates to minimize evaporation of the medium in the test wells during incubation. Each evaluated compound (100 μL) was incubated with each of the mycobacterial species (100 μL). Dilutions of each compound were prepared in duplicate. For all synthesized compounds, final concentrations ranged from 1,000 μg/mL to 8 μg/mL. All compounds were prepared in DMSO, and subsequent dilutions were made in supplemented MB. The plates were sealed with parafilm and incubated at 37°C, for 7 days in the case of M. intracellulare and 11 days in the case of M. avium paratuberculosis. Following incubation, a 10% addition of alamarBlue (AbD Serotec) was mixed with each well, and readings at 570 nm and 600 nm were taken, initially for background subtraction and subsequently after 24 h reincubation. […] For noninterfering compounds, a blue colour in the well was interpreted as an absence of growth, and a pink colour was scored as growth. The MIC was initially defined as the lowest concentration which prevented a visual colour change from blue to pink. […] The MIC/IC90 value is routinely and widely used in bacterial assays and is a standard detection limit according to the Clinical and Laboratory Standards Institute (CLSI, http://www.clsi.org/).
A general note: The colour change of resazurin is a common sign of viable cells or microbes.

For data set [4], the system named is Mycobacterium intracellulare. The description is as above. The note with it: for MIC: Mycobacterium intracellulare, 168 h, MIC/IC90, 7 days incubation, 37°C. The format is cell-based. As for the experimental part: as §1
The next data set deals with spinach chloroplasts. As to the kind of experiment: Photosynthetic electron transport (PET) in spinach chloroplasts (DCPIP photoreduction). Conditions: DMSO 8% v/v. Type of data set: biochemical, Spinacia oleracea L. As for the experimental part:
Chloroplasts were prepared from spinach (Spinacia oleracea L.) according to Masarovičová and Král'ová [38]. The inhibition of photosynthetic electron transport (PET) in spinach chloroplasts was determined spectrophotometrically (Genesys 6, Thermo Scientific, USA), using an artificial electron acceptor 2,6-dichlorophenol-indophenol (DCIPP) according to Král'ová et al., and the rate of photosynthetic electron transport was monitored as a photoreduction of DCPIP. The measurements were carried out in phosphate buffer (0.02 mol/L, pH 7.2) containing sucrose (0.4 mol/L), MgCl2 (0.005 mol/L), and NaCl (0.015 mol/L). The chlorophyll content was 30 mg/L in these experiments, and the samples were irradiated (~100 W/m^2 with 10 cm distance) with a halogen lamp (250 W) using a 4 cm water filter to prevent warming of the samples (suspension temperature 22°C). The studied compounds were dissolved in DMSO due to their limited water solubility, and the concentration of DMSO was constant (8% (v/v)) in control as well as in amphiphile-treated samples.

In the case of `COC(=O)Nc1ccc(C(=O)OCC(O)CNCCOc2ccccc2OC)cc1.Cl` (stereo not drawn) [Compound 19a, 2-Hydroxy-3-[2-(2-methoxyphenoxy)ethylamino]-propyl 4-(Methoxycarbonylamino)benzoate Hydrochloride], the Log k in data set [1] is listed as 0.3870. In addition, the pKa in data set [2] was 8.82. The MIC came out at 275 µM in data set [3] and 550 µM in data set [4].

Take `CCOC(=O)Nc1ccc(C(=O)OCC(O)CNCCOc2ccc(F)cc2)cc1.Cl` (stereo not drawn) [Compound 23b, 3-[2-(4-Fluorophenoxy)ethylamino]-2-hydroxypropyl 4-(Ethoxycarbonylamino)benzoate Hydrochloride]: the Log k in data set [1] came to 0.4032. In addition, the pKa in data set [2] was 8.09. For the same compound, the MIC in data set [3] and in data set [4] was 547 µM in each case.

`CCOC(=O)Nc1ccc(C(=O)OCC(O)CNCCOc2ccccc2F)cc1.Cl` (stereo not drawn) [Compound 22b, 3-[2-(2-Fluorophenoxy)ethylamino]-2-hydroxypropyl 4-(Ethoxycarbonylamino)benzoate Hydrochloride]: the Log k in data set [1] worked out at 0.4011. Also, the pKa in data set [2] is 7.99. In addition, the MIC in data set [3] and in data set [4] was 547 µM each time.

As to `CCCCOC(=O)Nc1ccc(C(=O)OCC(O)CNCCOc2ccccc2F)cc1.Cl` (stereo not drawn) [Compound 22d, 3-[2-(2-Fluorophenoxy)ethylamino]-2-hydroxypropyl 4-(Butoxycarbonylamino)benzoate Hydrochloride], in data set [1], the Log k was 0.4341. Also, in data set [2], the pKa was 7.96. Further, the MIC in data set [3] and in data set [4] was 124 µM in each case. Further, the “effect on the rate of PET (in words)” value in the data set on spinach chloroplasts is reported as “significantly stimulated the rate of PET”.

For the compound `COC(=O)Nc1ccc(C(=O)OCC(O)CNCCOc2c(OC)cccc2OC)cc1.Cl` (stereo not drawn) [Compound 21a, 2-Hydroxy-3-[2-(2,6-dimethoxyphenoxy)ethylamino]-propyl 4-(Methoxycarbonylamino)benzoate Hydrochloride], the Log k in data set [1] is given as 0.3865. Further, the pKa in data set [2] was 9.14. Also, the MIC in data set [3] and in data set [4] was 516 µM throughout.

In the case of `CCOC(=O)Nc1ccc(C(=O)OCC(O)CNCCOc2ccc(OC)cc2)cc1.Cl` (stereo not drawn) [Compound 20b, 2-Hydroxy-3-[2-(4-methoxyphenoxy)ethylamino]-propyl 4-(Ethoxycarbonylamino)benzoate Hydrochloride], the Log k in data set [1] is 0.3999. In addition, the pKa in data set [2] was 8.23. Also, the MIC in data set [3] and in data set [4] was 533 µM throughout.

With `CCOC(=O)Nc1ccc(C(=O)OCC(O)CNCCOc2ccccc2OC)cc1.Cl` (stereo not drawn) [Compound 19b, 2-Hydroxy-3-[2-(2-methoxyphenoxy)ethylamino]-propyl 4-(Ethoxycarbonylamino)benzoate Hydrochloride], in data set [1], the Log k worked out at 0.3976. For the same compound, the pKa in data set [2] was 8.9. Besides, the MIC in data set [3] amounted to 128 µM; in data set [4], 533 µM.

For `CCCOC(=O)Nc1ccc(C(=O)OCC(O)CNCCOc2c(OC)cccc2OC)cc1.Cl` (stereo not drawn) [Compound 21c, 2-Hydroxy-3-[2-(2,6-dimethoxyphenoxy)ethylamino]-propyl 4-(Propoxycarbonylamino)benzoate Hydrochloride], the Log k in data set [1] is on record as 0.4052. Moreover, the pKa in data set [2] was 8.9. For the same compound, the MIC is 117 µM in data set [3] and 487 µM in data set [4].

`COC(=O)Nc1ccc(C(=O)OCC(O)CNCCOc2ccc(OC)cc2)cc1.Cl` (stereo not drawn) [Compound 20a, 2-Hydroxy-3-[2-(4-methoxyphenoxy)ethylamino]-propyl 4-(Methoxycarbonylamino)benzoate Hydrochloride] registered a Log k in data set [1] of 0.3881. Moreover, the pKa in data set [2] was 8.25. Also, the MIC in data set [3] and in data set [4] was 550 µM throughout.

In turn, `COC(=O)Nc1ccc(C(=O)OCC(O)CNCCOc2ccc(F)cc2)cc1.Cl` (stereo not drawn) [Compound 23a, 3-[2-(4-Fluorophenoxy)ethylamino]-2-hydroxypropyl 4-(Methoxycarbonylamino)benzoate Hydrochloride] yielded a Log k in data set [1] of 0.3915. The pKa in data set [2] was 8.04. The MIC in data set [3] and in data set [4] was 564 µM each time.

In the case of `CCOC(=O)Nc1ccc(C(=O)OCC(O)CNCCOc2c(OC)cccc2OC)cc1.Cl` (stereo not drawn) [Compound 21b, 2-Hydroxy-3-[2-(2,6-dimethoxyphenoxy)ethylamino]-propyl 4-(Ethoxycarbonylamino)benzoate Hydrochloride], in data set [1], the Log k came to 0.3956. For the same compound, the pKa in data set [2] was 8.88. The MIC in data set [3] and in data set [4] was 501 µM each time.

The compound `CCCOC(=O)Nc1ccc(C(=O)OCC(O)CNCCOc2ccccc2F)cc1.Cl` (stereo not drawn) [Compound 22c, 3-[2-(2-Fluorophenoxy)ethylamino]-2-hydroxypropyl 4-(Propoxycarbonylamino)benzoate Hydrochloride] yielded a Log k in data set [1] of 0.4206. In addition, the pKa in data set [2] is 7.97. The MIC in data set [3] and in data set [4] was 265 µM each time.

In turn, `COC(=O)Nc1ccc(C(=O)OCC(O)CNCCOc2ccccc2F)cc1.Cl` (stereo not drawn) [Compound 22a, 3-[2-(2-Fluorophenoxy)ethylamino]-2-hydroxypropyl 4-(Methoxycarbonylamino)benzoate Hydrochloride] yielded a Log k in data set [1] of 0.3904. The pKa in data set [2] was 7.98. For the same compound, the MIC in data set [3] and in data set [4] was 564 µM in each case.

As for `CO[C@H]1/C=C/O[C@@]2(C)Oc3c(C)c(O)c4c(O)c(c(/C=N/N5CCN(C)CC5)c(O)c4c3C2=O)NC(=O)/C(C)=C\C=C\[C@H](C)[C@H](O)[C@@H](C)[C@@H](O)[C@@H](C)[C@H](OC(C)=O)[C@@H]1C` [RIF, rifampicin, reference compound], in data set [3], the MIC was greater than 109 µM.

As to `NC(=O)c1cnccn1` [PZA, pyrazinamide, reference compound], in data set [3], the “antimycobacterial activity against M. avium subsp. paratuberculosis (in words)” value was “inactive” and the MIC was greater than 2030 µM. Also, in data set [4], the “antimycobacterial activity against M. intracellulare (in words)” value is “inactive” and the MIC was greater than 812 µM.

In turn, `CCCOC(=O)Nc1ccc(C(=O)OCC(O)CNCCOc2ccc(F)cc2)cc1.Cl` (stereo not drawn) [Compound 23c, 3-[2-(4-Fluorophenoxy)ethylamino]-2-hydroxypropyl 4-(Propoxycarbonylamino)benzoate Hydrochloride] gave a Log k in data set [1] of 0.4228. Also, the pKa in data set [2] was 8.16. Besides, the MIC in data set [3] worked out at 66 µM; in data set [4], 265 µM.

Regarding `NNC(=O)c1ccncc1` [INH, isoniazid, reference compound], in data set [3], the “antimycobacterial activity against M. avium subsp. paratuberculosis (in words)” value is “inactive” and the minimum inhibitory concentration (MIC) is greater than 1820 µM. In data set [4], the “antimycobacterial activity against M. intracellulare (in words)” value was “inactive” and the MIC was greater than 729 µM.
